# “And” between values parts separate entries of the source, which are not always exact repeats. Equal entries are not always repeated.
# What was measured:
# [1] = earlier study, cited from earlier work
# [2] = system: metastatic colorectal cancer; experiment: Study 1: retrospective cohort, XCEL with or without radiation; tumor response (RECIST), PFS and OS; assay type: in vivo, human
# From the text: The institutional review board of The University of Texas M. D. Anderson Cancer Center approved this retrospective expanded cohort study. Between October 2000 and December 2003, seventy-four patients with metastatic colorectal cancer received capecitabine with concurrent celecoxib (n=66), or rofecoxib (n=2), ibuprofen (n=2), sulindac (n=2) and high dose aspirin (n=2).
# The radiation was delivered to the target area using 18 MV photons with 3-D conformal planning technique. The dose of radiation was either 35-40 Gy (n=18) or >45 Gy (n=15) with dose radiation missing in one patient. […] Celecoxib was continued with capecitabine to prevent HFS and to improve survival.
# All patients were subjected to routine clinical examinations, laboratory analyses, and computed tomography. Patients were seen weekly during radiotherapy if treated on site or every 6-9 weeks with physical examinations, laboratory tests, and computed tomography. Treatment-related toxicity was graded using the National Institutes of Health's Common Toxicities Criteria (CTC) version 2.0. Tumor responses were evaluated using RECIST criteria. Complete response was defined as complete radiographic disappearance of measurable or evaluable disease or stable, minimal radiographic findings; partial response was defined as reduction of the longest dimension of measurable disease by at least 50%; stable disease was defined as reduction of the longest dimension by less than 25%; These responses or stable must be confirmed at least by 3 months interval evaluation; Progressive disease was defined as growth of the tumor by more than 25% in the longest dimension or development of new lesions. Overall response rate was defined as the sum of the complete and partial response rates and the tumor control rate was defined as the sum of overall response rates with stable disease rates. The date of death was ascertained through the cancer registry or through a search of patients' social security numbers in the Social Security Death Index (ssdi.genealogy.rootsweb.com). The cutoff point for collection of data was April 2004.
# Continuous variables were summarized using the mean (±standard deviation) or the median (range). […] Progression-free and overall survival distributions were summarized using the method of Kaplan and Meier. Differences in progression-free and overall survival by subgroup were analyzed using the log-rank test. Multivariate models of predictors of progression-free survival and overall survival were evaluated using the proportional hazards (Cox) regression model. P<0.05 was considered statistically significant.
# [3] = Study 3: treatment-related toxicity of XCEL (CTCAE version 3.0); settings: in vivo
# From the text: The institutional review board approved this study. […] All patients had clinical examinations, laboratory and CT scan every 2-3 months.
# The principal investigator and two board-certified radiologists reviewed all the CT scan images. CR was defined according to the RECIST criteria as complete disappearance of measurable or none-measurable disease. Effective CR (eCR) was coined to describe normalization of an anatomical structure (e.g. nodes) that cannot regress completely. Confirmed CR included those patients who had CR by meeting the RECIST criteria or had achieved eCR or pathological CR. Near CR (nCR) were defined as almost complete disappearance (95-99%) of measurable disease on CT scan. Relapse free survival (RFS) was defined as the time from first radiologic CR to first recurrence, progression, or death. […] OS was defined as the time from first radiologic CR to death from any cause. Treatment related toxicity was graded in accordance with the National Cancer Institute Common Toxicity Criteria for Adverse Events, version 3.0.
# [4] = First-line responders, no radiation (n = 5)
# [5] = First-line responders, radiation (n = 4)
# [6] = First-line, no radiation (n = 14)
# [7] = Second-line, no radiation (n = 13)
# [8] = Second-line, radiation (n = 20)
# [9] = second-line XCEL, progressed on 5FU and irinotecan (n=28)
# [10] = second-line with 9 first-line responding patients included
# [11] = second-line, irinotecan refractory
compound,measurement,setting,value
Cc1ccc(-c2cc(C(F)(F)F)nn2-c2ccc(S(N)(=O)=O)cc2)cc1 [XCEL],incidence of grade ⅔ HFS,"[1]; capecitabine 1000 mg/m2/d bid (Lin et al., 2002)",12.5%
same,grade ¾ diarrhea,"[1]; versus capecitabine alone (Lin et al., 2002)",reduced
same,"Overall Survival, Median (95% CI)",[2]; All,22.0 (17.8-31.5) months
same,"Progression-free survival, Median (95% CI)",[2]; All,8.3 (7.0-11.0) months
same,"Overall Survival, Median (95% CI)",[2]; CEA >3.0 ng/ml,20.0 (16.2-26.9) months
same,"Progression-free survival, Median (95% CI)",[2]; CEA >3.0 ng/ml,7.1 (5.7-9.4) months
same,"Overall Survival, Median (95% CI)",[2]; CEA ≦3.0 ng/ml,31.5 (18.0-NR) months
same,"Progression-free survival, Median (95% CI)",[2]; CEA ≦3.0 ng/ml,16.8 (9.4-NR) months
same,Complete response,[2]; [4],4 (80) No. of patients (%)
same,Overall response,[2]; [4],4 (80) No. of patients (%)
same,Partial response,[2]; [4],0 (0) No. of patients (%)
same,Stable disease,[2]; [4],0 (0) No. of patients (%)
same,Tumor control,[2]; [4],4 (80) No. of patients (%)
same,Complete response,[2]; [5],3 (75) No. of patients (%)
same,Overall response,[2]; [5],4 (100) No. of patients (%)
same,Partial response,[2]; [5],1 (0) No. of patients (%)
same,Stable disease,[2]; [5],0 (0) No. of patients (%)
same,Tumor control,[2]; [5],4 (100) No. of patients (%)
same,Complete response,[2]; [6],1 (7) No. of patients (%)
same,Overall response,[2]; [6],4 (29) No. of patients (%)
same,Partial response,[2]; [6],3 (21) No. of patients (%)
same,Stable disease,[2]; [6],8 (57) No. of patients (%)
same,Tumor control,[2]; [6],12 (86) No. of patients (%)
same,Complete response,"[2]; First-line, radiation (n = 10)",3 (30) No. of patients (%)
same,Overall response,"[2]; First-line, radiation (n = 10)",4 (40) No. of patients (%)
same,Partial response,"[2]; First-line, radiation (n = 10)",3 (20) No. of patients (%)
same,Stable disease,"[2]; First-line, radiation (n = 10)",4 (40) No. of patients (%)
same,Tumor control,"[2]; First-line, radiation (n = 10)",8 (80) No. of patients (%)
same,"Progression-free survival, Median (95% CI)",[2]; LDH >618,6.4 (4.3-7.2) months
same,"Progression-free survival, Median (95% CI)",[2]; LDH ≦618,14.5 (9.2-26.3) months
same,"Overall Survival, Median (95% CI)",[2]; LDH ≦618 (normal level of LDH),31 months and 31.5 (23.6-NR) months
same,"Overall Survival, Median (95% CI)",[2]; No Radiation (RT),20.0 (16.6-22.8) months
same,"Progression-free survival, Median (95% CI)",[2]; No Radiation (RT),7.2 (4.8-9.4) months
same,Complete response,[2]; No radiation (n = 32),4 (13) No. of patients (%)
same,Overall response,[2]; No radiation (n = 32),10 (31) No. of patients (%)
same,Partial response,[2]; No radiation (n = 32),6 (19) No. of patients (%)
same,Stable disease (>4 months),[2]; No radiation (n = 32),13 (41) No. of patients (%)
same,Tumor control,[2]; No radiation (n = 32),23 (72) No. of patients (%)
same,"Overall Survival, Median (95% CI)",[2]; No surgery,19.3 (16.2-26.9) months
same,"Progression-free survival, Median (95% CI)",[2]; No surgery,7.8 (6.4-9.4) months
same,"Progression-free survival, Median (95% CI)",[2]; RT <45 Gy,8.0 (6.4-14.6) months
same,"Overall Survival, Median (95% CI)",[2]; RT ≧45 Gy,21.8 (17.6-NR) months
same,"Progression-free survival, Median (95% CI)",[2]; RT ≧45 Gy,21.2 (7.1-21.2) months
same,Complete response,[2]; Radiation (n = 34),9 (26) No. of patients (%)
same,Overall response,[2]; Radiation (n = 34),15 (44) No. of patients (%)
same,Partial response,[2]; Radiation (n = 34),6 (18) No. of patients (%)
same,Stable disease (>4 months),[2]; Radiation (n = 34),12 (35) No. of patients (%)
same,Tumor control,[2]; Radiation (n = 34),27 (79) No. of patients (%)
same,Complete response,[2]; [7],0 No. of patients (%)
same,Overall response,[2]; [7],2 (15) No. of patients (%)
same,Partial response,[2]; [7],2 (15) No. of patients (%)
same,Stable disease,[2]; [7],5 (38) No. of patients (%)
same,Tumor control,[2]; [7],7 (54) No. of patients (%)
same,Complete response,[2]; [8],2 (10) No. of patients (%)
same,Overall response,[2]; [8],7 (35) No. of patients (%)
same,Partial response,[2]; [8],5 (25) No. of patients (%)
same,Stable disease,[2]; [8],8 (40) No. of patients (%)
same,Tumor control,[2]; [8],15 (75) No. of patients (%)
same,"Progression-free survival, Median (95% CI)",[2]; Surgery,16.8 (8.3-31.4) months
same,patients achieving complete response,[2]; after first-line response to irinotecan-based therapy,7 of 9
same,second line overall response rate,[2]; all 9 first-line irinotecan responders included,40.5%
same,complete response (CR),[2]; all 66 patients,20%
same,overall response rate,[2]; all 66 patients,38%
same,partial response (PR),[2]; all 66 patients,18%
same,tumor control rate,[2]; all 66 patients,76%
same,median PFS,[2]; first-line XCEL,8.3 months
same,median overall survival,[2]; first-line XCEL,26.9 months
same,Stable disease (%),[2]; first-line XCEL (n=24),50%
same,complete response (CR),[2]; first-line XCEL (n=24),17%
same,overall response rate,[2]; first-line XCEL (n=24),34% and 33%
same,tumor control rate,[2]; first-line XCEL (n=24),84%
same,complete responses,"[2]; nineteen of 66 patients, XCEL alone or with radiation",29%
same,complete response by site,[2]; nodal metastasis,51%
same,complete response by site,[2]; peritoneum,40%
same,Stable disease (%),[2]; second-line XCEL (n=28),50%
same,complete response (CR),[2]; [9],7%
same,overall response rate,[2]; [9],25%
same,tumor control rate,[2]; [9],68%
same,median overall survival,[2]; [10],19.3 months
same,median progression free survival,[2]; [10],8.3 months
same,median PFS,[2]; [11],6.7 months
same,median overall survival,[2]; [11],17.8 months and 17.6 months
same,Median mean corpuscular volume (MCV) increase from baseline after XCEL,[3],11.5
same,cardiovascular toxicities,[3],No cardiovascular toxicities were encountered

# Reference: patent US9260760B2, “Method for determining complete response to anticancer therapy” (Board of Regents, The University of Texas System, priority 2012, dated 2016)
